The source of these data is US9290459B1, “Substituted bicyclic dihydropyrimidinones and their use as inhibitors of neutrophil elastase activity” (Boehringer Ingelheim International GmbH, priority 2013, dated 2016).

In the assay the target is Human neutrophil elastase (Homo sapiens (Human), UniProt P08246). The experiment in a line: Human Neutrophil Elastase Assay. The format is biochemical. The note with it: human neutrophil elastase, substrate MeOSuc-Ala-Ala-Pro-Val-AMC 250 μM, pH 7.5; read-out: IC50.

One may read the IC50 as the concentration needed to halve the response being measured.

A value given as a limit tells only on which side of the number the result lay.

Human neutrophil elastase, sequence (P08246 30-247): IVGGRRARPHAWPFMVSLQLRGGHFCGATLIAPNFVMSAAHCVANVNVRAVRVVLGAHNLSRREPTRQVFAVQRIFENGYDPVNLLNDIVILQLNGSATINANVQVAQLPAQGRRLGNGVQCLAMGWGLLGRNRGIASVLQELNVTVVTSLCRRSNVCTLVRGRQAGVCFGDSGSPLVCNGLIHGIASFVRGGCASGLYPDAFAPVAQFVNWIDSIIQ

As for `CS(=O)(=O)N1C(=O)N(c2cccc(C(F)(F)F)c2)C2=C(C(=O)CC2)C1c1ccc(C#N)cn1` (stereo not shown) [Example 38.1], the IC50 is 37.7 nM.
The result for `CNC(=O)N1C(=O)N(c2ccnc(C(F)(F)F)c2)C2=C(C(=O)CC2)C1c1ccc(C#N)cc1S(C)(=O)=O` (racemic) [Example 56.1] reads less than 1 nM.
The result for `CNC(=O)N1C(=O)N(c2cccc(C(F)(F)F)c2)C2=C(C(=O)CC2)C1c1ccc(C#N)cc1Cl` (stereo not shown) [Example 50.4] reads 1.2 nM.
The value for `CSc1cc(C#N)ccc1C1C2=C(CCC2=O)N(c2cccc(C(F)(F)F)c2)C(=O)N1C` (stereo not shown) [Example 27.1, 4-(3-methyl-2,5-dioxo-1-(3-(trifluoromethyl)phenyl)-2,3,4,5,6,7-hexahydro-1H-cyclopenta[d]pyrimidin-4-yl)-3-(methylthio)benzonitrile] was 4.6 nM.
`CS(=O)(=O)c1cc(C#N)ccc1[C@@H]1C2=C(CCC2=O)N(c2cccc(C(F)(F)F)c2)C(=O)N1S(C)(=O)=O` [Example 37, 3-(Methylsulfonyl)-4-(3-(methylsulfonyl)-2,5-dioxo-1-(3-(trifluoromethyl)phenyl)-2,3,4,5,6,7-hexahydro-1H-cyclopenta[d]pyrimidin-4-yl)benzonitrile]: the half-maximal inhibitory concentration (IC50) was less than 1 nM.
The value for `CNC(=O)N1C(=O)N(c2cccc(C(F)F)c2)C2=C(C(=O)CC2)C1c1ccc(C#N)cc1S(C)(=O)=O` (stereo not shown) [Example 53.1] was less than 1 nM.
Take `CCNC(=O)N1C(=O)N(c2cccc(C(F)(F)F)c2)C2=C(C(=O)CC2)C1c1ccc(C#N)cc1Cl` (stereo not shown) [Example 51.2]: the IC50 is less than 1 nM.
The value for `CNC(=O)N1C(=O)N(c2cccc(C(F)(F)F)c2)C2=C(C(=O)CC2)C1c1ccc(C#N)cc1Br` (stereo not shown) [Example 50.6] was 1.2 nM; that for `N#Cc1ccc(C2NC(=O)N(c3cccc(C(F)(F)F)c3)C3=C2C(=O)CC3)c(Cl)c1` (stereo not shown) [Example 15, 3-Chloro-4-(2,5-dioxo-1-(3-(trifluoromethyl)phenyl)-2,3,4,5,6,7-hexahydro-1H-cyclopenta[d]pyrimidin-4-yl)benzonitrile] was 30.1 nM; that for `CS(=O)(=O)N1C(=O)N(c2cccc(C(F)(F)F)c2)C2=C(C(=O)CC2)C1c1ccc(C#N)cc1` (stereo not shown) [Example 9, 4-(3-(Methylsulfonyl)-2,5-dioxo-1-(3-(trifluoromethyl)phenyl)-2,3,4,5,6,7-hexahydro-1H-cyclopenta[d]pyrimidin-4-yl)benzonitrile] was 5.1 nM.
As for `COc1cc(C#N)ccc1C1C2=C(CCC2=O)N(c2cccc(C(F)(F)F)c2)C(=O)N1C` (stereo not shown) [Example 26.3], the half-maximal inhibitory concentration (IC50) was 9.5 nM.
The value for `N#Cc1ccc(C2NC(=O)N(c3cccc(C(F)(F)F)c3)C3=C2C(=O)CC3)c(F)c1` (stereo not shown) [Example 18, 4-(2,5-Dioxo-1-(3-(trifluoromethyl)phenyl)-2,3,4,5,6,7-hexahydro-1H-cyclopenta[d]-pyrimidin-4-yl)-3-fluorobenzonitrile] was 44.2 nM.
The value for `N#Cc1ccc(C2C3=C(CCC3=O)N(c3cccc(C(F)(F)F)c3)C(=O)N2C(=O)NC2CCS(=N)(=O)CC2)cc1` (stereo not shown) [Example 44, 4-(4-Cyanophenyl)-2,5-dioxo-N-(1-imino-1-oxo-hexahydro-1λ^6-thiopyran-4-yl)-1-(3-(trifluoromethyl)phenyl)-4,5,6,7-tetrahydro-1H-cyclopenta[d]pyrimidine-3(2H)-carboxamide] was less than 1 nM; that for `COCCNC(=O)N1C(=O)N(c2cccc(C(F)F)c2)C2=C(C(=O)CC2)C1c1ccc(C#N)cc1` (stereo not shown) [Example 52.4] was less than 1 nM; that for `CN1C(=O)N(c2cccc(C(F)(F)F)c2)C2=C(C(=O)CC2)C1c1ccc(C#N)cc1Br` (stereo not shown) [Example 27.2] was 7.1 nM.
In the case of `CCS(=O)(=O)c1cc(C#N)ccc1[C@@H]1NC(=O)N(c2cccc(C(F)(F)F)c2)C2=C1C(=O)CC2` [Example 14B, (R)-4-(2,5-Dioxo-1-(3-(trifluoromethyl)phenyl)-2,3,4,5,6,7-hexahydro-1H-cyclopenta[d]pyrimidin-4-yl)-3-(ethylsulfonyl)benzonitrile], the IC50 was 33 nM.
Take `CNC(=O)N1C(=O)N(c2cccc(C(F)(F)F)c2)C2=C(C(=O)CC2)C1c1ccc(C#N)cc1F` (stereo not shown) [Example 49, 4-(4-Cyano-2-fluorophenyl)-N-methyl-2,5-dioxo-1-(3-(trifluoromethyl)phenyl)-4,5,6,7-tetrahydro-1H-cyclopenta[d]pyrimidine-3(2H)-carboxamide]: the half-maximal inhibitory concentration (IC50) was determined as 1.8 nM.
As for `COC(=O)CCCS(=O)(=O)N1C(=O)N(c2cccc(C(F)(F)F)c2)C2=C(C(=O)CC2)C1c1ccc(C#N)cc1` (stereo not shown) [Example 34, Methyl 4-(4-(4-Cyanophenyl)-2,5-dioxo-1-(3-(trifluoromethyl)phenyl)-6,7-dihydro-1H-cyclopenta[d]pyrimidin-3(2H,4H,5H)-ylsulfonyl)butanoate], the IC50 was 3.2 nM.
Regarding `N#Cc1ccc([C@H]2C3=C(CCC3=O)N(c3cccc(C(F)F)c3)C(=O)N2C(=O)NCCCO)cc1` [Example 52B, (S)-4-(4-Cyanophenyl)-1-(3-(difluoromethyl)phenyl)-N-(3-hydroxypropyl)-2,5-dioxo-4,5,6,7-tetrahydro-1H-cyclopenta[d]pyrimidine-3(2H)-carboxamide], the concentration for half-maximal inhibition (IC50) was 619 nM.
The value for `N#Cc1ccc(C2C3=C(CCC3=O)N(c3cccc(C(F)(F)F)c3)C(=O)N2C(=O)NC2CC[S+]([O-])CC2)cc1` (stereo not shown) [Example 43, 4-(4-Cyanophenyl)-2,5-dioxo-N-(1-oxo-hexahydro-1λ^4-thiopyran-4-yl)-1-(3-(trifluoro-methyl)phenyl)-4,5,6,7-tetrahydro-1H-cyclopenta[d]pyrimidine-3(2H)-carboxamide] was less than 1 nM; that for `CC(C)(O)CNC(=O)N1C(=O)N(c2cccc(C(F)(F)F)c2)C2=C(C(=O)CC2)[C@@H]1c1ccc(C#N)cc1` [Example 41B, (S)-4-(4-Cyanophenyl)-N-(2-hydroxy-2-methylpropyl)-2,5-dioxo-1-(3-(trifluoro-methyl)phenyl)-4,5,6,7-tetrahydro-1H-cyclopenta[d]pyrimidine-3(2H)-carboxamide] was 40.4 nM; that for `CCNC(=O)N1C(=O)N(c2cccc(C(F)(F)F)c2)C2=C(C(=O)CC2)C1c1ccc(C#N)cc1[S+](C)[O-]` (stereo not shown) [Example 51.4] was less than 1 nM.
The value for `CN1C(=O)N(c2cccc(C(F)F)c2)C2=C(C(=O)CC2)C1c1ccc(C#N)cc1` (stereo not shown) [Example 26, 4-(1-(3-(Difluoromethyl)phenyl)-3-methyl-2,5-dioxo-2,3,4,5,6,7-hexahydro-1H-cyclopenta[d]pyrimidin-4-yl)benzonitrile] was 9.4 nM; that for `COc1cc(C#N)ccc1C1NC(=O)N(c2cccc(C(F)(F)F)c2)C2=C1C(=O)CC2` (stereo not shown) [Example 15.1] was 42.1 nM.
The result for `N#Cc1ccc(C2NC(=O)N(c3cccc(C(F)(F)F)c3)C3=C2C(=O)CC3)nc1` (stereo not shown) [Example 15.3, 6-(2,5-dioxo-1-(3-(trifluoromethyl)phenyl)-2,3,4,5,6,7-hexahydro-1H-cyclopenta[d]pyrimidin-4-yl)nicotinonitrile] reads 106 nM; that for `CS(=O)(=O)c1cc(C#N)ccc1C1NC(=O)N(c2cccc(C(F)(F)F)c2)C2=C1C(=O)CC2` (stereo not shown) [Example 10, 4-(2,5-Dioxo-1-(3-(trifluoromethyl)phenyl)-2,3,4,5,6,7-hexahydro-1H-cyclopenta[d]pyrimidin-4-yl)-3-(methylsulfonyl)benzonitrile], 5.8 nM.
Consider `CC1CC2=C(C1=O)C(c1ccc(C#N)cc1)NC(=O)N2c1cccc(C(F)(F)F)c1` (stereo not shown) [Example 15.7], for which the IC50 came to 66 nM.
The result for `CCNC(=O)N1C(=O)N(c2cccc(C(F)F)c2)C2=C(C(=O)CC2)C1c1ccc(C#N)cc1S(C)(=O)=O` (stereo not shown) [Example 53.2] reads less than 1 nM; that for `CS(=O)(=O)c1cc(C#N)ccc1[C@@H]1NC(=O)N(c2cccc(C(F)F)c2)C2=C1C(=O)CC2` [Example 15.4B, (R)-4-(1-(3-(Difluoromethyl)phenyl)-2,5-dioxo-2,3,4,5,6,7-hexahydro-1H-cyclopenta[d]pyrimidin-4-yl)-3-(methylsulfonyl)benzonitrile], 57.7 nM.
The value for `CN1C(=O)N(c2cccc(C(F)F)c2)C2=C(C(=O)CC2)C1c1ccc(C#N)cc1S(C)(=O)=O` (stereo not shown) [Example 27, 4-(1-(3-(Difluoromethyl)phenyl)-3-methyl-2,5-dioxo-2,3,4,5,6,7-hexahydro-1H-cyclopenta[d]pyrimidin-4-yl)-3-(methylsulfonyl)benzonitrile] was 1.9 nM.
The result for `N#Cc1ccc(C2NC(=O)N(c3ccnc(C(F)(F)F)c3)C3=C2C(=O)CC3)cc1` (stereo not shown) [Example 15.5, 4-(2,5-Dioxo-1-(2-(tri-fluoromethyl)pyridin-4-yl)-2,3,4,5,6,7-hexahydro-1H-cyclopenta[d]pyrimidin-4-yl)benzonitrile] reads 110 nM; that for `CN1C(=O)N(c2cccc(C(F)(F)F)c2)C2=C(C(=O)CC2)C1c1ccc(C#N)cc1Cl` (stereo not shown) [Example 26.4], 26.2 nM; that for `CS(=O)(=O)N1C(=O)N(c2cccc(C(F)(F)F)c2)C2=C(C(=O)CC2)[C@@H]1c1ccc(C#N)cc1` [Example 9B, (S)-4-(3-(Methylsulfonyl)-2,5-dioxo-1-(3-(trifluoromethyl)phenyl)-2,3,4,5,6,7-hexahydro-1H-cyclopenta[d]pyrimidin-4-yl)benzonitrile], 3180 nM.
As for `N#Cc1ccc(C2C3=C(CCC3=O)N(c3cccc(C(F)(F)F)c3)C(=O)N2CC(=O)O)cc1` (stereo not shown) [Example 4, 2-(4-(4-Cyanophenyl)-2,5-dioxo-1-(3-(trifluoromethyl)phenyl)-6,7-dihydro-1H-cyclopenta[d]pyrimidin-3(2H,4H,5H)-yl)acetic acid], the IC50 amounted to 10.9 nM.
For the molecule `CNC(=O)N1C(=O)N(c2ccnc(C(F)(F)F)c2)C2=C(C(=O)CC2)C1c1ccc(C#N)cc1` (racemic) [Example 54.1], the IC50 amounted to 4.9 nM.
The result for `N#Cc1ccc(C2C3=C(CCC3=O)N(c3cccc(C(F)(F)F)c3)C(=O)N2C(N)=O)cc1` (stereo not shown) [Example 40, 4-(4-Cyanophenyl)-2,5-dioxo-1-(3-(trifluoromethyl)phenyl)-4,5,6,7-tetrahydro-1H-cyclopenta[d]pyrimidine-3(2H)-carboxamide] reads 2.2 nM; that for `CCS(=O)(=O)c1cc(C#N)ccc1C1C2=C(CCC2=O)N(c2cccc(C(F)(F)F)c2)C(=O)N1C(=O)NC` (stereo not shown) [Example 50.7], less than 1 nM.
